Key:
[1] = Thermal Gravimetric Analysis (TGA); type: physicochemical; conditions: in nitrogen, scan 20 to 520° C., ramp rate 10 degrees per minute
Method: Thermal Gravimetric Analysis (TGA)
Thermal gravimetric data were obtained on a Universal V3.9A TA Instrument. Temperature scan range was from 20 to 520° C. with a ramp rate of 10 degrees per minute. Sample sizes were typically about 10 mg of solid product.
In comparison, curves 1 and 2 show the thermal degradation profiles of products of Examples 7D and 13, respectively.
TGA Under Same Conditions as Comparative Example I for Various Dendrimers of Formula (I) and PAMAM

[2] = cited from earlier work

Compound | Onset Temp. (° C.) [1] | Temp. (° C.) at 50% wt loss [1] | Temp. (° C.) at Residue [1] | pKa value [2]
COC(=O)C1CC(=O)N(CCN(CCN2CC(C(=O)OC)CC2=O)CC(O)Cn2c(=O)n(CC(O)CN(CCN3CC(C(=O)OC)CC3=O)CCN3CC(C(=O)OC)CC3=O)c(=O)n(CC(O)CN(CCN3CC(C(=O)OC)CC3=O)CCN3CC(C(=O)OC)CC3=O)c2=O)C1 (stereo not shown) [Example 33] | 320 °C | 407 °C | 500+ ° C. | –
tris(hydroxymethyl)amino methane | – | – | – | 8.10
